Assay [1] deals with human JAK1 (a.a. 837-1142) (Homo sapiens, UniProt P23458). Put plainly: In vitro JAK kinase assay (HTRF, phosphorylation of biotinylated peptide), JAK1. Type of assay: biochemical. As to conditions: Table F; 1 mM ATP. Summed up:
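Phosphorylation of a biotinylated peptide was run at room temperature for 1 hour using the N-terminally His-tagged JAK1 kinase domain (837-1142) from insect cells. After an EDTA stop, Eu-Py20 and SA-APC gave an HTRF read; values are binned potency ranges.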
(In general: Time-resolved FRET reads energy transfer from a long-lived donor to a nearby acceptor.)

The target in the next assay is T1, JAK2 (a.a. 828-1132) (Homo sapiens, UniProt O60674).
T1 construct: JAK2 (a.a. 828-1132); His tag (N)
The experiment in a line: In vitro JAK kinase assay (HTRF, phosphorylation of biotinylated peptide), JAK2. The assay is classed as biochemical. As to conditions: Table F; 1 mM ATP. Summed up:
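HTRF detection (Eu-Py20, SA-APC, 40 min) of biotinylated-peptide phosphorylation, following a 1 hour room-temperature reaction quenched with 45 mM EDTA. Enzymes: insect-cell-expressed N-terminal His-tagged JAK1 (837-1142) and JAK2 (828-1132) catalytic domains. Activities reported in ranged categories.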

Bounds are passed on as bounds.

Sequence of human JAK1 (a.a. 837-1142) (P23458 849-1154): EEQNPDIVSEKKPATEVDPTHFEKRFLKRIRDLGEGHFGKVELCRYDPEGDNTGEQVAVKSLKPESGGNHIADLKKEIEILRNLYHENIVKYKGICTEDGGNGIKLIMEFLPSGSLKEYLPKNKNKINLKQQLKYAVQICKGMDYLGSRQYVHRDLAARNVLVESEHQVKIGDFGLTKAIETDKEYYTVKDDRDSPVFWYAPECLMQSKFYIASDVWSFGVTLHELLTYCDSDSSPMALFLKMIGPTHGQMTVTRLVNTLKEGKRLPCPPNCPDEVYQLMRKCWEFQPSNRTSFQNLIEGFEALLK
T1 sequence (O60674 828-1132): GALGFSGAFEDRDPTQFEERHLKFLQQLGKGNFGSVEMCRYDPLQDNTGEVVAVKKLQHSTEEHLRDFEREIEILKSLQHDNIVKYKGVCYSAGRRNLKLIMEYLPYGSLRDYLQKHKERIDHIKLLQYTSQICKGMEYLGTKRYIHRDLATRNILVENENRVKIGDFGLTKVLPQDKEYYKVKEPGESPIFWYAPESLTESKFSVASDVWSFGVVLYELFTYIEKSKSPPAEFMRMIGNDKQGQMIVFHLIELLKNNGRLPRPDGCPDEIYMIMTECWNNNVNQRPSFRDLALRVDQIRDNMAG

As usually defined, the IC50 is the concentration at which inhibition is half-maximal. A lower IC50 goes with greater potency. Turning to `CNC(=O)N1CCN([C@H]2C[C@](CC#N)(n3cc(-c4ncnc5[nH]ccc45)cn3)C2)CC1` [Example 112, 4-{trans-3-(cyanomethyl)-3-[4-(7H-pyrrolo[2,3-d]pyrimidin-4-yl)-1H-pyrazol-1-yl]cyclobutyl}-N-methylpiperazine-1-carboxamide], the results for the IC50 (in assay [1]; at JAK2 (a.a. 828-1132)) were 10 to 25 nM and 25 to 100 nM, respectively.

Consider `C[C@@H](NC(=O)N1CCN([C@H]2C[C@](CC#N)(n3cc(-c4ncnc5[nH]ccc45)cn3)C2)CC1)C(F)(F)F` [Example 113, 4-{trans-3-(cyanomethyl)-3-[4-(7H-pyrrolo[2,3-d]pyrimidin-4-yl)-1H-pyrazol-1-yl]cyclobutyl}-N-[(1R)-2,2,2-trifluoro-1-methylethyl]piperazine-1-carboxamide], for which the IC50 in assay [1] is < 10 nM; against JAK2 (a.a. 828-1132), > 100 nM.

Take `C[C@H](NC(=O)N1CCN([C@H]2C[C@](CC#N)(n3cc(-c4ncnc5[nH]ccc45)cn3)C2)CC1)C(F)(F)F` [Example 114, 4-{trans-3-(cyanomethyl)-3-[4-(7H-pyrrolo[2,3-d]pyrimidin-4-yl)-1H-pyrazol-1-yl]cyclobutyl}-N-[(1S)-2,2,2-trifluoro-1-methylethyl]piperazine-1-carboxamide]: the IC50 is < 10 nM in assay [1] and > 100 nM at JAK2 (a.a. 828-1132).

Turning to `CC[C@H](NC(=O)N1CCN([C@H]2C[C@](CC#N)(n3cc(-c4ncnc5[nH]ccc45)cn3)C2)CC1)C(F)(F)F` [Example 115, 4-{trans-3-(cyanomethyl)-3-[4-(7H-pyrrolo[2,3-d]pyrimidin-4-yl)-1H-pyrazol-1-yl]cyclobutyl}-N-[(1S)-1-(trifluoromethyl)propyl]piperazine-1-carboxamide], the IC50 in assay [1] is < 10 nM; against JAK2 (a.a. 828-1132), > 100 nM.

As to `N#CC[C@]1(n2cc(-c3ncnc4[nH]ccc34)cn2)C[C@H](N2CCN(C(=O)N3CCC[C@@H]3C(F)(F)F)CC2)C1` [Example 116, [trans-1-[4-(7H-pyrrolo[2,3-d]pyrimidin-4-yl)-1H-pyrazol-1-yl]-3-(4-{[(2R)-2-(trifluoromethyl)pyrrolidin-1-yl]carbonyl}piperazin-1-yl)cyclobutyl]acetonitrile], the IC50 was 25 to 100 nM in assay [1] and > 100 nM at JAK2 (a.a. 828-1132).

On to `N#CC[C@]1(n2cc(-c3ncnc4[nH]ccc34)cn2)C[C@H](N2CCN(C(=O)N3CCC[C@H]3C(F)(F)F)CC2)C1` [Example 117, [trans-1-[4-(7H-pyrrolo[2,3-d]pyrimidin-4-yl)-1H-pyrazol-1-yl]-3-(4-{[(2S)-2-(trifluoromethyl)pyrrolidin-1-yl]carbonyl}piperazin-1-yl)cyclobutyl]acetonitrile], for which the IC50 in assay [1] is 25 to 100 nM; against JAK2 (a.a. 828-1132) it was > 100 nM.

For `CN(C)/C(=N\C#N)N1CCN([C@H]2C[C@](CC#N)(n3cc(-c4ncnc5[nH]ccc45)cn3)C2)CC1` [Example 118, N′-cyano-4-{trans-3-(cyanomethyl)-3-[4-(7H-pyrrolo[2,3-d]pyrimidin-4-yl)-1H-pyrazol-1-yl]cyclobutyl}-N,N-dimethylpiperazine-1-carboximidamide], the IC50 in assay [1] fell in the range of 10 to 25 nM; at JAK2 (a.a. 828-1132), 25 to 100 nM.

For the compound `CS(=O)(=O)N1CCN([C@H]2C[C@](CC#N)(n3cc(-c4ncnc5[nH]ccc45)cn3)C2)CC1` [Example 119, {trans-3-[4-(methylsulfonyl)piperazin-1-yl]-1-[4-(7H-pyrrolo[2,3-d]pyrimidin-4-yl)-1H-pyrazol-1-yl]cyclobutyl}acetonitrile], the IC50 was < 10 nM in assay [1] and 10 to 25 nM on JAK2 (a.a. 828-1132).

`CC(C)OC(=O)N1CCN([C@H]2C[C@](CC#N)(n3cc(-c4ncnc5[nH]ccc45)cn3)C2)CC1` [Example 120, isopropyl 4-{trans-3-(cyanomethyl)-3-[4-(7H-pyrrolo[2,3-d]pyrimidin-4-yl)-1H-pyrazol-1-yl]cyclobutyl}piperazine-1-carboxylate]: the IC50 in assay [1] was < 10 nM; on JAK2 (a.a. 828-1132), 25 to 100 nM.

As to `CC(C)(C)NCc1cc(OC2CCN([C@H]3C[C@](CC#N)(n4cc(-c5ncnc6[nH]ccc56)cn4)C3)CC2)nc(C(F)(F)F)c1` [Example 127, {trans-3-(4-{[4-[(tert-butylamino)methyl]-6-(trifluoromethyl)pyridin-2-yl]oxy}piperidin-1-yl)-1-[4-(7H-pyrrolo[2,3-d]pyrimidin-4-yl)-1H-pyrazol-1-yl]cyclobutyl}acetonitrile], the IC50 in assay [1] was < 10 nM; against JAK2 (a.a. 828-1132) it was 25 to 100 nM.

In the case of `CC(C)(C)NCc1cc(OC2CCN([C@H]3C[C@@](CC#N)(n4cc(-c5ncnc6[nH]ccc56)cn4)C3)CC2)nc(C(F)(F)F)c1` [Example 128, {cis-3-(4-{[4-[(tert-butylamino)methyl]-6-(trifluoromethyl)pyridin-2-yl]oxy}piperidin-1-yl)-1-[4-(7H-pyrrolo[2,3-d]pyrimidin-4-yl)-1H-pyrazol-1-yl]cyclobutyl}acetonitrile], the figures for the IC50 (in assay [1]; on JAK2 (a.a. 828-1132)) were 25 to 100 nM and > 100 nM, respectively.

Regarding `N#CC[C@]1(n2cc(-c3ncnc4[nH]ccc34)cn2)C[C@H](N2CCC(Oc3cc(CN)cc(C(F)(F)F)n3)CC2)C1` [Example 129, {trans-3-(4-{[4-(aminomethyl)-6-(trifluoromethyl)pyridin-2-yl]oxy}piperidin-1-yl)-1-[4-(7H-pyrrolo[2,3-d]pyrimidin-4-yl)-1H-pyrazol-1-yl]cyclobutyl}acetonitrile], the IC50 was < 10 nM in assay [1] and 25 to 100 nM on JAK2 (a.a. 828-1132).

As to `CN(C)Cc1cc(OC2CCN([C@H]3C[C@](CC#N)(n4cc(-c5ncnc6[nH]ccc56)cn4)C3)CC2)nc(C(F)(F)F)c1` [Example 130, {trans-3-(4-{[4-[(dimethylamino)methyl]-6-(trifluoromethyl)pyridin-2-yl]oxy}piperidin-1-yl)-1-[4-(7H-pyrrolo[2,3-d]pyrimidin-4-yl)-1H-pyrazol-1-yl]cyclobutyl}acetonitrile], the results for the IC50 (in assay [1]; on JAK2 (a.a. 828-1132)) were < 10 nM and > 100 nM, respectively.

As for `CCNCc1cc(OC2CCN([C@H]3C[C@](CC#N)(n4cc(-c5ncnc6[nH]ccc56)cn4)C3)CC2)nc(C(F)(F)F)c1` [Example 131, {trans-3-(4-{[4-[(ethylamino)methyl]-6-(trifluoromethyl)pyridin-2-yl]oxy}piperidin-1-yl)-1-[4-(7H-pyrrolo[2,3-d]pyrimidin-4-yl)-1H-pyrazol-1-yl]cyclobutyl}acetonitrile], the IC50 in assay [1] is < 10 nM; against JAK2 (a.a. 828-1132), 25 to 100 nM.

With `CNCc1cc(OC2CCN([C@H]3C[C@](CC#N)(n4cc(-c5ncnc6[nH]ccc56)cn4)C3)CC2)nc(C(F)(F)F)c1` [Example 132, {trans-3-(4-{[4-[(methylamino)methyl]-6-(trifluoromethyl)pyridin-2-yl]oxy}piperidin-1-yl)-1-[4-(7H-pyrrolo[2,3-d]pyrimidin-4-yl)-1H-pyrazol-1-yl]cyclobutyl}acetonitrile], the IC50 is < 10 nM in assay [1] and 25 to 100 nM against JAK2 (a.a. 828-1132).

On to `CN(C)Cc1cc(C(=O)N2CCN([C@H]3C[C@@](CC#N)(n4cc(-c5ncnc6[nH]ccc56)cn4)C3)CC2)cc(C(F)(F)F)c1` [Example 135, {cis-3-{4-[3-[(dimethylamino)methyl]-5-(trifluoromethyl)benzoyl]piperazin-1-yl}-1-[4-(7H-pyrrolo[2,3-d]pyrimidin-4-yl)-1H-pyrazol-1-yl]cyclobutyl}acetonitrile], for which the IC50 in assay [1] is 10 to 25 nM; against JAK2 (a.a. 828-1132) it was > 100 nM.

Regarding `CN(C)Cc1cc(C#N)cc(C(=O)N2CCN([C@H]3C[C@](CC#N)(n4cc(-c5ncnc6[nH]ccc56)cn4)C3)CC2)c1` [Example 136, 3-[(4-{trans-3-(cyanomethyl)-3-[4-(7H-pyrrolo[2,3-d]pyrimidin-4-yl)-1H-pyrazol-1-yl]cyclobutyl}piperazin-1-yl)carbonyl]-5-[(dimethylamino)methyl]benzonitrile], the IC50 was < 10 nM in assay [1] and 25 to 100 nM at JAK2 (a.a. 828-1132).

Take `CN(C)Cc1cc(C#N)cc(OC2CCN([C@H]3C[C@](CC#N)(n4cc(-c5ncnc6[nH]ccc56)cn4)C3)CC2)c1` [Example 137, 3-[(1-{trans-3-(cyanomethyl)-3-[4-(7H-pyrrolo[2,3-d]pyrimidin-4-yl)-1H-pyrazol-1-yl]cyclobutyl}piperidin-4-yl)oxy]-5-[(dimethylamino)methyl]benzonitrile]: the 50% inhibitory concentration (IC50) is 10 to 25 nM in assay [1] and > 100 nM at JAK2 (a.a. 828-1132).

As to `CN(C)Cc1cc(OC2CCN([C@H]3C[C@](CC#N)(n4cc(-c5ncnc6[nH]ccc56)cn4)C3)CC2)cc(C(F)(F)F)c1` [Example 138, {trans-3-{4-[3-[(Dimethylamino)methyl]-5-(trifluoromethyl)phenoxy]piperidin-1-yl}-1-[4-(7H-pyrrolo[2,3-d]pyrimidin-4-yl)-1H-pyrazol-1-yl]cyclobutyl}acetonitrile], the figures for the IC50 (in assay [1]; on JAK2 (a.a. 828-1132)) were 10 to 25 nM and > 100 nM, respectively.

In the case of `CCN(CC)Cc1cc(OC2CCN([C@H]3C[C@](CC#N)(n4cc(-c5ncnc6[nH]ccc56)cn4)C3)CC2)cc(C(F)(F)F)c1` [Example 139, {trans-3-{4-[3-[(diethylamino)methyl]-5-(trifluoromethyl)phenoxy]piperidin-1-yl}-1-[4-(7H-pyrrolo[2,3-d]pyrimidin-4-yl)-1H-pyrazol-1-yl]cyclobutyl}acetonitrile], the IC50 in assay [1] was < 10 nM; at JAK2 (a.a. 828-1132), > 100 nM.

As to `CN(C)Cc1cc(OC2CCN([C@H]3C[C@](CC#N)(n4cc(-c5ncnc6[nH]ccc56)cn4)C3)CC2)cc(C(F)F)c1` [Example 140, {trans-3-(4-{3-(difluoromethyl)-5-[(dimethylamino)methyl]phenoxy}piperidin-1-yl)-1-[4-(7H-pyrrolo[2,3-d]pyrimidin-4-yl)-1H-pyrazol-1-yl]cyclobutyl}acetonitrile], the IC50 was 10 to 25 nM in assay [1] and > 100 nM on JAK2 (a.a. 828-1132).
